Data taken from patent US20130217702A1 (Richter Gedeon Nyrt., priority 2010, published 2013).

Columns and labels:
[1] = molecular target: T1, recombinant human B1 receptors (Homo sapiens, UniProt P46663); assay: Functional assay: antagonist potency by cytosolic calcium measurement (plate reader fluorimeter) in CHO-B1 cells, agonist LysDABK; assay type: cell-based; settings: CHO-B1 cells, inhibition of LysDABK (EC80)-evoked [Ca2+]i elevation; read-out: B1 func.
T1 construct: host or cells: CHO (CHO-B1)
T1 sequence (P46663 1-353): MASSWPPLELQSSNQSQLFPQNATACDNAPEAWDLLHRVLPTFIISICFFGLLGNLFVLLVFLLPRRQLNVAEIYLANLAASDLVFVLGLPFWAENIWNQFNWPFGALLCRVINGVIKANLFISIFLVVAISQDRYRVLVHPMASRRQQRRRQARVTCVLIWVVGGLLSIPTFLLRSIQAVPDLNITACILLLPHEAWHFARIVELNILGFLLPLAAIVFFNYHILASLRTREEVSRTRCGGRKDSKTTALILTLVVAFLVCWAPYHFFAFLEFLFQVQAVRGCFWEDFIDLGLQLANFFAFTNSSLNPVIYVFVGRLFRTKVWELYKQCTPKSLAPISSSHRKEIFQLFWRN
Procedure: Assessment of Antagonist Potency at B1 Receptors In Vitro by Measurement of Cytosolic Calcium Ion Concentration with a Plate Reader Fluorimeter in Cells Expressing Recombinant Human B1 Receptors
Chinese hamster ovary (CHO) cells stably expressing recombinant human B1 (CHO-B1, Euroscreen) receptors were cultured in Dulbecco's Modified Eagle's Medium (DMEM) containing 10% Fetal Calf Serum (FCS), 100 U/ml penicillin, 0.1 mg/ml streptomycin, 0.25 μg/ml amphotericin B, 1% Minimum Essential Medium Eagle (MEM), non essential amino acid solution, 600 μg/ml G418. Cells were kept at 37° C. in a humidified incubator in an atmosphere of 5% CO2/95% air and were passaged 1:4 three times a week. Cells were plated at 1.5−2.5×10^4 cell/well on standard 96-well microplates, measurements of cytosolic calcium ion concentration ([Ca^2+]i) were carried out 1-2 days after cell plating.
Measurements of [Ca^2+]i were carried out on CHO-B1 cells stably expressing human B1 receptors, respectively. Cells were grown in standard 96-well microplates and before the measurement were loaded with a fluorescent Ca^2+-sensitive dye, fluo-4/AM (2 μM): after removing the culture medium the dye was added to the cells (dissolved in assay buffer: 145 mM NaCl, 5 mM KCl, 2 mM MgCl2, 2 mM CaCl2, 10 mM HEPES, 20 mM D-glucose, 2 mM probenecid, 100 μl/well) and cells were incubated at 37° C. in a humidified incubator in an atmosphere of 5% CO2/95% air for 40-120 min. To stop dye loading cells were washed twice with assay buffer. After washing, various concentrations of the test compounds (diluted in extracellular medium from a DMSO stock solution, final DMSO concentration was <0.1%) or buffer were added to each well depending on the experimental setup. After incubation at 37° C. for 20-25 min. baseline and agonist-evoked changes of [Ca^2+]; were measured column by column with a plate reader fluorimeter (Fluoroskan Ascent, Labsystems). Excitation and detection of emission was carried out from the bottom of the plate. Filters used for Fluo-4: excitation filter 485 nm, emission filter 538 nm. The whole measurement process was performed at 37° C. and was controlled by custom software. Inhibitory potency of the test compounds was assessed by measuring the reduction in the agonist-evoked [Ca^2+]i-elevation in the presence of different concentrations of the compounds. The agonist was LysDABK for CHO-B1 cells. Agonist was applied at an EC80 concentration; the EC80-values were derived from daily determined dose-response curves. Fluorescence data were expressed as ΔF/F (fluorescence change normalized to baseline). All treatments on a single plate were measured in multiple wells. Data from all wells with the same treatment were averaged and the average values were used for analysis. Inhibitory potency of a compound at a single concentration point was expressed as percent inhibition of the control agonist response. Sigmoidal concentration-inhibition curves were fitted to the data (derived from at least three independent experiments) and IC50-values were determined as the concentration that produces half of the maximal inhibition caused by the compound.

[2] = molecular target: T2, human recombinant bradykinin B1 receptor (Homo sapiens, UniProt P46663); assay: Human recombinant bradykinin B1 receptor competitive radioligand binding; settings: hB1 expressed in CHO cells, [3H]-[Des-Arg10] Kallidin radioligand; read-out: B1 binding
T2 construct: host or cells: CHO cells, clone hB1-A5
T2 sequence (P46663 1-353): T1 sequence (P46663 1-353)
Procedure: Assessment of Ligand Binding Affinity to B1 and B2 Receptors In Vitro by Competitive Radioligand Binding Assay
Binding assays were carried out on human recombinant bradykinin) receptors (expressed in CHO cells, hB1-A5) according to the Euroscreen Technical Data Sheet (Cat.No.:ES-091). 20 μg protein/tube was incubated with [3,4-prolyl-3,4-^3H(N)]-[Des-Arg^10] Kallidin as radioligand. Non specific binding was determined in the presence of 10 μM Lys-des-Arg^9-Bradykinin. The final incubation volume was 250 μl. Samples were incubated for 15 min. at 25° C. then were rapidly vacuum filtered through GF/B filters presoaked for at least 1 h in 0.5% PEI. Radioactivity was determined by liquid scintillation spectroscopy.
The ligand displacement by the compounds was determined using a minimum of seven concentrations in triplicate, and experiments were repeated at least two times. The specific radioligand binding is defined as the difference between total binding and the non-specific binding determined in the presence of an excess of unlabelled ligand. Results are expressed as a percent inhibition of specific binding obtained in the presence of RGH-478 or reference drugs. IC50 values (i.e. concentration of compound giving 50% inhibition of specific binding) were calculated from concentration-displacement curves by sigmoidal fitting using GraphPad Prism Software 4.0. Ki values (i.e. inhibition constants) were calculated using the Cheng-Prusoff equation. KD was determined from the Scatchard plot. (Editor-in-chief: Enna, S. J. and Williams, M. Current protocols in pharmacology vol. 1. John Wiley & sons Inc., 1998)

Row | SMILES | IC50 [1] [nM] | Ki [2] [nM]
1 | Cc1nc(-c2c(Cl)c3ccccc3n2-c2ccc(CNC(=O)C3(NC(=O)c4cccnc4F)CC3)cc2)no1 [Example 95, N-(1-{4-[3-Chloro-2-(5-methyl-[1,2,4]oxadiazol-3-yl)-indol-1-yl]-benzylcarbamoyl}-cyclopropyl)-2-fluoro-nicotinamide] | < 20 | < 20
2 | N#Cc1cc2ccccc2n1-c1ccc(CNC(=O)C2(NC(=O)c3cncc(C(F)(F)F)c3)CC2)cc1 [Example 84, N-{1-[4-(2-Cyano-indol-1-yl)-benzylcarbamoyl]-cyclopropyl}-5-trifluoromethyl-nicotinamide] | < 20 | < 20
3 | Cc1nc(-c2c(Cl)c3ccccc3n2-c2ccc(CNC(=O)C3(NC(=O)C4CCCO4)CC3)cc2)no1 (stereo not shown) [Example 136, Tetrahydro-furan-2-carboxylic acid (1-{4-[3-chloro-2-(5-methyl-[1,2,4]oxadiazol-3-yl)-indol-1-yl]-benzylcarbamoyl}-cyclopropyl)-amide] | 20 to 100 | 20 to 100
4 | CSc1ncc(C(=O)NC2(C(=O)NCc3ccc(-n4c(-c5noc(C)n5)c(Cl)c5ccccc54)cc3)CC2)cn1 [Example 77, 2-Methylsulfanyl-pyrimidine-5-carboxylic acid (1-{4-[3-chloro-2-(5-methyl-[1,2,4]oxadiazol-3-yl)-indol-1-yl]-benzylcarbamoyl}-cyclopropyl)-amide] | < 20 | < 20
5 | Cc1nc(-c2c(Cl)c3ccccc3n2-c2ccc(CNC(=O)C3(NC(=O)c4cccc(Br)n4)CC3)cc2)no1 [Example 157, 6-Bromo-pyridine-2-carboxylic acid (1-{4-[3-chloro-2-(5-methyl-[1,2,4]oxadiazol-3-yl)-indol-1-yl]-benzylcarbamoyl}-cyclopropyl)-amide] | 20 to 100 | < 20
6 | Cc1nc(-c2c(Cl)c3cc(Cl)ccc3n2-c2ccc(CNC(=O)C3(NC(=O)c4cncc(C(F)(F)F)c4)CC3)cc2)no1 [Example 76, N-(1-{4-[3,5-Dichloro-2-(5-methyl-[1,2,4]oxadiazol-3-yl)-indol-1-yl]-benzylcarbamoyl}-cyclopropyl)-5-trifluoromethyl-nicotinamide] | < 20 | < 20
7 | COc1cc(C(=O)NC2(C(=O)NCc3ccc(-n4c(-c5nnn(C)n5)c(Cl)c5ccccc54)cc3)CC2)on1 [Example 2, 3-Methoxy-isoxazole-5-carboxylic acid (1-{4-[3-chloro-2-(2-methyl-2H-tetrazol-5-yl)-indol-1-yl]-benzylcarbamoyl}-cyclopropyl)-amide] | < 20 | < 20
8 | Cn1nnc(-c2c(Cl)c3ccccc3n2-c2ccc(CNC(=O)C3(NC(=O)c4cccnc4F)CC3)cc2)n1 [Example 119, N-(1-{4-[3-Chloro-2-(2-methyl-2H-tetrazol-5-yl)-indol-1-yl]-benzylcarbamoyl}-cyclopropyl)-2-fluoro-nicotinamide] | < 20 | < 20
9 | COc1cc(C(=O)NC2(C(=O)NCc3ccc(-n4c(-c5nc(C)no5)cc5ccccc54)cc3)CC2)on1 [Example 196, 3-Methoxy-isoxazole-5-carboxylic acid (1-{4-[2-(3-methyl-[1,2,4]oxadiazol-5-yl)-indol-1-yl]-benzylcarbamoyl}-cyclopropyl)-amide] | 20 to 100 | < 20
10 | Cc1nc(-c2c(Cl)c3ccccc3n2-c2ccc(CNC(=O)C3(NC(=O)c4ccc(=O)[nH]c4)CC3)cc2)no1 [Example 160, 6-Oxo-1,6-dihydro-pyridine-3-carboxylic acid (1-{4-[3-chloro-2-(5-methyl-[1,2,4]oxadiazol-3-yl)-indol-1-yl]-benzylcarbamoyl}-cyclopropyl)-amide] | < 20 | < 20
11 | CC(=O)NC(CO)C(=O)NC1(C(=O)NCc2ccc(-n3c(-c4noc(C)n4)c(Cl)c4ccccc43)cc2)CC1 (stereo not shown) [Example 151, 1-(2-Acetylamino-3-hydroxy-propionylamino)-cyclopropanecarboxylic acid 4-[3-chloro-2-(5-methyl-[1,2,4]oxadiazol-3-yl)-indol-1-yl]-benzylamide] | 100 to 500 | 100 to 500
